Measured values from ChEMBL document CHEMBL3864142, “Allicin-inspired thiolated fluoroquinolones as antibacterials against ESKAPE pathogens” (2016).
Values after ≈ are worked out from the molar mass of the structure shown. Active and inactive are the calls of the source. No cut-off for these calls is given here.

Assays:
Staphylococcus aureus [1] = assay: Antibacterial activity against methicillin-susceptible Staphylococcus aureus ATCC 29213 by broth microdilution method; format: functional
Staphylococcus aureus [2] = assay: Antibacterial activity against methicillin-resistant Staphylococcus aureus BAA-1747 by broth microdilution method; format: functional
[3] = Antibacterial activity against vancomycin-intermediate resistant Staphylococcus aureus Mu50 ATCC 700699 by broth microdilution method; format: functional, Staphylococcus aureus subsp. aureus Mu50
Staphylococcus aureus [4] = assay: Bactericidal activity against methicillin-susceptible Staphylococcus aureus ATCC 29213 by broth microdilution method; format: functional
Staphylococcus aureus [5] = assay: Bactericidal activity against methicillin-resistant Staphylococcus aureus BAA-1747 by broth microdilution method; format: functional
[6] = Bactericidal activity against vancomycin-intermediate resistant Staphylococcus aureus Mu50 ATCC 700699 by broth microdilution method; format: functional, Staphylococcus aureus subsp. aureus Mu50
Staphylococcus aureus [7] = assay: Ratio of MBC to MIC for methicillin-susceptible Staphylococcus aureus ATCC 29213; format: functional
Staphylococcus aureus [8] = assay: Ratio of MBC to MIC for methicillin-resistant Staphylococcus aureus BAA-1747; format: functional
Staphylococcus aureus [9] = assay: Ratio of MBC to MIC for vancomycin-intermediate resistant Staphylococcus aureus Mu50 ATCC 700699; format: functional
Enterococcus faecium [10] = assay: Antibacterial activity against vancomycin-resistant Enterococcus faecium ATCC 700221 at 10 uM by disc diffusion method; format: functional; conditions: read-out: DIZ
Staphylococcus aureus [11] = assay: Antibacterial activity against methicillin-resistant Staphylococcus aureus BAA-1747 at 10 uM by disc diffusion method; format: functional; conditions: read-out: DIZ
Klebsiella pneumoniae [12] = assay: Antibacterial activity against ESBL-producer Klebsiella pneumoniae K6 700603 at 10 uM by disc diffusion method; format: functional; conditions: read-out: DIZ
Acinetobacter baumannii [13] = assay: Antibacterial activity against ciprofloxacin-resistant Acinetobacter baumannii BAA-1605 at 10 uM by disc diffusion method; format: functional; conditions: read-out: DIZ
Pseudomonas aeruginosa [14] = assay: Antibacterial activity against Pseudomonas aeruginosa ATCC 15442 at 10 uM by disc diffusion method; format: functional; conditions: read-out: DIZ
Enterococcus faecalis = assay: Antibacterial activity against vancomycin-susceptible Enterococcus faecalis ATCC 29212 at 10 uM by disc diffusion method; format: functional; conditions: read-out: DIZ
Staphylococcus aureus [15] = assay: Antibacterial activity against methicillin-susceptible Staphylococcus aureus ATCC 29213 at 10 uM by disc diffusion method; format: functional; conditions: read-out: DIZ
[16] = Antibacterial activity against vancomycin-intermediate resistant Staphylococcus aureus Mu50 ATCC 700699 at 10 uM by disc diffusion method; format: functional, Staphylococcus aureus subsp. aureus Mu50; conditions: read-out: DIZ
Acinetobacter baumannii [17] = assay: Antibacterial activity against Acinetobacter baumannii ATCC 19606 at 10 uM by disc diffusion method; format: functional; conditions: read-out: DIZ
[18] = Antibacterial activity against Bacillus anthracis Sterne 34F2 at 10 uM by disc diffusion method; format: functional, Bacillus anthracis str. Sterne; conditions: read-out: DIZ
Staphylococcus aureus [19] = assay: Induction of reactive oxygen species formation in Staphylococcus aureus at 25 uM after 0.5 hrs by DCFH-DA probe-based fluorometric assay relative to control; format: functional
Staphylococcus aureus [20] = assay: Antibacterial activity against Staphylococcus aureus after overnight incubation in presence of antioxidant vitamin E by double-diffusion assay; format: functional
Staphylococcus aureus [21] = assay: Antibacterial activity against Staphylococcus aureus after overnight incubation in presence of GSH by double-diffusion assay; format: functional
Enterobacter cloacae [22] = assay: Antibacterial activity against Enterobacter cloacae ATCC 23355 at 10 uM by disc diffusion method; format: functional; conditions: read-out: DIZ
[23] = test system: Staphylococcus epidermidis; assay: Antibacterial activity against Staphylococcus epidermidis ATCC 14990 at 10 uM by disc diffusion method; format: functional; conditions: read-out: DIZ
[24] = Glutathione reactivity assessed as formation of S-(propylthio)glutathione and ciprofloxacin at 1 uM after 2 hrs by ESI-positive MS method
Enterococcus faecium [25] = assay: Antibacterial activity against vancomycin-resistant Enterococcus faecium ATCC 700221 at 50 uM by disc diffusion method; format: functional; conditions: read-out: DIZ
Staphylococcus aureus [26] = assay: Antibacterial activity against methicillin-resistant Staphylococcus aureus BAA-1747 at 50 uM by disc diffusion method; format: functional; conditions: read-out: DIZ
Klebsiella pneumoniae [27] = assay: Antibacterial activity against ESBL-producer Klebsiella pneumoniae K6 700603 at 50 uM by disc diffusion method; format: functional; conditions: read-out: DIZ
Acinetobacter baumannii [28] = assay: Antibacterial activity against ciprofloxacin-resistant Acinetobacter baumannii BAA-1605 at 50 uM by disc diffusion method; format: functional; conditions: read-out: DIZ
Pseudomonas aeruginosa [29] = assay: Antibacterial activity against Pseudomonas aeruginosa ATCC 15442 at 50 uM by disc diffusion method; format: functional; conditions: read-out: DIZ
Enterobacter cloacae [30] = assay: Antibacterial activity against Enterobacter cloacae ATCC 23355 at 50 uM by disc diffusion method; format: functional; conditions: read-out: DIZ
Enterococcus faecium [31] = assay: Antibacterial activity against vancomycin-resistant Enterococcus faecium ATCC 700221 at 25 uM in presence of 10 uM ciprofloxacin by disc diffusion method; format: functional
Staphylococcus aureus [32] = assay: Antibacterial activity against methicillin-resistant Staphylococcus aureus BAA-1747 at 25 uM in presence of 10 uM ciprofloxacin by disc diffusion method; format: functional
Klebsiella pneumoniae [33] = assay: Antibacterial activity against ESBL-producer Klebsiella pneumoniae K6 700603 at 25 uM in presence of 10 uM ciprofloxacin by disc diffusion method; format: functional
Acinetobacter baumannii [34] = assay: Antibacterial activity against ciprofloxacin-resistant Acinetobacter baumannii BAA-1605 at 25 uM in presence of 10 uM ciprofloxacin by disc diffusion method; format: functional
Pseudomonas aeruginosa [35] = assay: Antibacterial activity against Pseudomonas aeruginosa ATCC 15442 at 25 uM in presence of 10 uM ciprofloxacin by disc diffusion method; format: functional
Enterobacter cloacae [36] = assay: Antibacterial activity against Enterobacter cloacae ATCC 23355 at 25 uM in presence of 10 uM ciprofloxacin by disc diffusion method; format: functional
Enterococcus faecium [37] = assay: Antibacterial activity against vancomycin-resistant Enterococcus faecium ATCC 700221 at 50 uM in presence of 10 uM ciprofloxacin by disc diffusion method; format: functional
Staphylococcus aureus [38] = assay: Antibacterial activity against methicillin-resistant Staphylococcus aureus BAA-1747 at 50 uM in presence of 10 uM ciprofloxacin by disc diffusion method; format: functional
Klebsiella pneumoniae [39] = assay: Antibacterial activity against ESBL-producer Klebsiella pneumoniae K6 700603 at 50 uM in presence of 10 uM ciprofloxacin by disc diffusion method; format: functional
Acinetobacter baumannii [40] = assay: Antibacterial activity against ciprofloxacin-resistant Acinetobacter baumannii BAA-1605 at 50 uM in presence of 10 uM ciprofloxacin by disc diffusion method; format: functional
Pseudomonas aeruginosa [41] = assay: Antibacterial activity against Pseudomonas aeruginosa ATCC 15442 at 50 uM in presence of 10 uM ciprofloxacin by disc diffusion method; format: functional
Enterobacter cloacae [42] = assay: Antibacterial activity against Enterobacter cloacae ATCC 23355 at 50 uM in presence of 10 uM ciprofloxacin by disc diffusion method; format: functional

| Compound | MIC (Staphylococcus aureus [1]) | MIC (Staphylococcus aureus [2]) | MIC [3] | MBC (Staphylococcus aureus [4]) | MBC (Staphylococcus aureus [5]) | MBC [6] | zone of inhibition at 10 µM (Enterococcus faecium [10]) | zone of inhibition at 10 µM (Staphylococcus aureus [11]) | zone of inhibition at 10 µM (Klebsiella pneumoniae [12]) | zone of inhibition at 10 µM (Acinetobacter baumannii [13]) | zone of inhibition at 10 µM (Pseudomonas aeruginosa [14]) | zone of inhibition at 10 µM (Enterococcus faecalis) | zone of inhibition at 10 µM (Staphylococcus aureus [15]) | zone of inhibition at 10 µM [16] | zone of inhibition at 10 µM (Acinetobacter baumannii [17]) | zone of inhibition at 10 µM [18] | zone of inhibition at 10 µM (Enterobacter cloacae [22]) | zone of inhibition at 10 µM [23] | other results |
| --- | --- | --- | --- | --- | --- | --- | --- | --- | --- | --- | --- | --- | --- | --- | --- | --- | --- | --- | --- |
| CN[C@H](CC(C)C)C(=O)N[C@H]1C(=O)N[C@@H](CC(N)=O)C(=O)N[C@H]2C(=O)N[C@H]3C(=O)N[C@H](C(=O)N[C@H](C(=O)O)c4cc(O)cc(O)c4-c4cc3ccc4O)[C@H](O)c3ccc(c(Cl)c3)Oc3cc2cc(c3O[C@@H]2O[C@H](CO)[C@@H](O)[C@H](O)[C@H]2O[C@H]2C[C@](C)(N)[C@H](O)[C@H](C)O2)Oc2ccc(cc2Cl)[C@H]1O [VANCOMYCIN] | 0.1 µM (≈ 0.145 µg/mL) | 0.1 µM (≈ 0.145 µg/mL) | 0.78 µM (≈ 1.13 µg/mL) | 0.1 µM (≈ 0.145 µg/mL) | 0.1 µM (≈ 0.145 µg/mL) | 0.78 µM (≈ 1.13 µg/mL) | – | – | – | – | – | – | – | – | – | – | – | – | Ratio (Staphylococcus aureus [7]): 1; Ratio (Staphylococcus aureus [8]): 1; Ratio (Staphylococcus aureus [9]): 1 |
| O=C(O)c1cn(C2CC2)c2cc(N3CCNCC3)c(F)cc2c1=O [CIPROFLOXACIN] | 0.1 µM (≈ 0.0331 µg/mL) | 1.56 µM (≈ 0.517 µg/mL) | 50 µM (≈ 16.6 µg/mL) | 0.78 µM (≈ 0.258 µg/mL) | 3.13 µM (≈ 1.04 µg/mL) | 50 µM (≈ 16.6 µg/mL) | 0 mm | 20 mm | 22 mm | 0 mm | 29 mm | 22 mm | 23 mm | 9 mm | 23 mm | 34 mm | – | – | fold change (FC) (Staphylococcus aureus [19]): 2 - 3; Activity (Staphylococcus aureus [20]): Active; Activity (Staphylococcus aureus [21]): Active |
| CCCSN1CCN(c2cc3c(cc2F)c(=O)c(C(=O)O)cn3C2CC2)CC1 | 0.1 µM (≈ 0.0405 µg/mL) | 1.56 µM (≈ 0.633 µg/mL) | 50 µM (≈ 20.3 µg/mL) | 0.2 µM (≈ 0.0811 µg/mL) | 1.56 µM (≈ 0.633 µg/mL) | 50 µM (≈ 20.3 µg/mL) | 0 mm | 24 mm | 25 mm | 0 mm | 32 mm | 28 mm | 29 mm | 11 mm | 27 mm | 38 mm | 29 mm | 37 mm | Ratio (Staphylococcus aureus [7]): 2; Ratio (Staphylococcus aureus [8]): 1; Ratio (Staphylococcus aureus [9]): 1; Drug metabolism [24]: Metabolite detected; fold change (FC) (Staphylococcus aureus [19]): 2 - 3; Activity (Staphylococcus aureus [20]): Active; Activity (Staphylococcus aureus [21]): Active |
| CC(C)C(C)SN1CCN(c2cc3c(cc2F)c(=O)c(C(=O)O)cn3C2CC2)CC1 (configuration not stated) | – | – | – | – | – | – | 0 mm | 23 mm | 26 mm | 0 mm | 31 mm | 25 mm | 28 mm | 9 mm | 26 mm | 32 mm | 29 mm | 29 mm | – |
| CC(C)SN1CCN(c2cc3c(cc2F)c(=O)c(C(=O)O)cn3C2CC2)CC1 | – | – | – | – | – | – | 0 mm | 23 mm | 23 mm | 0 mm | 31 mm | 23 mm | 21 mm | 10 mm | 23 mm | 36 mm | 25 mm | 34 mm | – |
| CSN1CCN(c2cc3c(cc2F)c(=O)c(C(=O)O)cn3C2CC2)CC1 | – | – | – | – | – | – | 0 mm | 23 mm | 22 mm | 10 mm | 29 mm | 21 mm | 24 mm | 11 mm | 23 mm | 36 mm | 23 mm | 33 mm | – |
| C=CCS[S+]([O-])CC=C (configuration not stated) [ALLICIN] | – | – | – | – | – | – | – | – | – | – | – | – | – | – | – | – | – | – | zone of inhibition at 50 µM (Enterococcus faecium [25]): 18 mm; zone of inhibition at 50 µM (Staphylococcus aureus [26]): 28 mm; zone of inhibition at 50 µM (Klebsiella pneumoniae [27]): 13 mm; zone of inhibition at 50 µM (Acinetobacter baumannii [28]): 24 mm; zone of inhibition at 50 µM (Pseudomonas aeruginosa [29]): 0 mm; zone of inhibition at 50 µM (Enterobacter cloacae [30]): 15 mm; diameter of the inhibition zone (DIZ) (Enterococcus faecium [31]): 10 mm; diameter of the inhibition zone (DIZ) (Staphylococcus aureus [32]): 25 mm; diameter of the inhibition zone (DIZ) (Klebsiella pneumoniae [33]): 22 mm; diameter of the inhibition zone (DIZ) (Acinetobacter baumannii [34]): 20 mm; diameter of the inhibition zone (DIZ) (Pseudomonas aeruginosa [35]): 28 mm; diameter of the inhibition zone (DIZ) (Enterobacter cloacae [36]): 31 mm; diameter of the inhibition zone (DIZ) (Enterococcus faecium [37]): 17 mm; diameter of the inhibition zone (DIZ) (Staphylococcus aureus [38]): 29 mm; diameter of the inhibition zone (DIZ) (Klebsiella pneumoniae [39]): 24 mm; diameter of the inhibition zone (DIZ) (Acinetobacter baumannii [40]): 25 mm; diameter of the inhibition zone (DIZ) (Pseudomonas aeruginosa [41]): 27 mm; diameter of the inhibition zone (DIZ) (Enterobacter cloacae [42]): 31 mm |
